Assay results as given in the supplement of paper PMC10307832.

How the values were obtained:
Assay in all cases: relative viability (nuclei count vs DMSO), 5 days (fraction); higher = more cells survive
[1] = system: RERF-LC-KJ
In short: (§1)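 After 5 days of treatment, lung cancer cells in 1536-well plates were fixed and stained in a single step (final 0.05% Triton X-100, 1% formaldehyde, 1 ug/ml Hoechst) and their nuclei counted on 4× images. Treatment had been applied by pin tool the day after seeding as one drug alone or as a fixed anchor-drug dose with five library-drug doses (not always all listed) in √10 steps. Relative viability is the nuclei count of treated wells divided by that of vehicle wells, and values are medians of duplicate plates.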

[2] = system: NCI-H1915
In short: as §1

[3] = system: ChaGo-K-1
In short: as §1

[4] = system: NCI-H1666
In short: as §1

[5] = system: LC-2-ad
In short: as §1

[6] = system: PC-14
In short: as §1

[7] = system: NCI-H647
In short: as §1

[8] = system: NCI-H23
In short: as §1

[9] = system: HCC-78
In short: as §1

[10] = system: NCI-H2405
In short: as §1

[11] = system: NCI-H2087
In short: as §1

[12] = system: NCI-H520
In short: as §1

[13] = system: HCC-827
In short: as §1

[14] = system: EPLC-272H
In short: as §1

[15] = system: LCLC-97TM1
In short: as §1

[16] = system: NCI-H322M
In short: as §1

[17] = system: COR-L 105
In short: as §1

[18] = system: H3255
In short: as §1

[19] = system: NCI-H2126
In short: as §1

[20] = system: 201T
In short: as §1

[21] = system: NCI-H2347
In short: as §1

[22] = system: NCI-H650
In short: as §1

O=C(O)c1ccc(-c2c[nH]c3ncc(-c4ccccc4)cc23)cc1C1CCCC1 + CC1(C)CCC(c2ccc(Cl)cc2)=C(CN2CCN(c3ccc(C(=O)NS(=O)(=O)c4ccc(N[C@H](CCN5CCOCC5)CSc5ccccc5)c(S(=O)(=O)C(F)(F)F)c4)cc3)CC2)C1 [Navitoclax] (partner 0.5 µM)
relative viability ([1]; first compound 0.04 µM): 1.05 | relative viability ([1]; first compound 0.1265 µM): 1.24 | relative viability ([1]; first compound 0.4 µM): 0.842 | relative viability ([1]; first compound 1.265 µM): 0.772 | relative viability ([2]; first compound 0.04 µM): 0.769 | relative viability ([2]; first compound 0.1265 µM): 0.77 | relative viability ([2]; first compound 0.4 µM): 0.609 | relative viability ([2]; first compound 1.265 µM): 0.502 | relative viability ([3]; first compound 0.04 µM): 1.16 | relative viability ([3]; first compound 0.1265 µM): 1.3 | relative viability ([3]; first compound 0.4 µM): 0.888 | relative viability ([3]; first compound 1.265 µM): 1.32 | relative viability ([4]; first compound 0.04 µM): 1.02 | relative viability ([4]; first compound 0.1265 µM): 1.01 | relative viability ([4]; first compound 0.4 µM): 0.849 | relative viability ([4]; first compound 1.265 µM): 0.584 | relative viability ([5]; first compound 0.04 µM): 0.399 | relative viability ([5]; first compound 0.1265 µM): 0.5 | relative viability ([5]; first compound 0.4 µM): 0.415 | relative viability ([5]; first compound 1.265 µM): 0.173 | relative viability ([6]; first compound 0.04 µM): 1.01 | relative viability ([6]; first compound 0.1265 µM): 1.1 | relative viability ([6]; first compound 0.4 µM): 1.03 | relative viability ([6]; first compound 1.265 µM): 0.814 | relative viability ([7]; first compound 0.04 µM): 1.1 | relative viability ([7]; first compound 0.1265 µM): 1.13 | relative viability ([7]; first compound 0.4 µM): 1.04 | relative viability ([7]; first compound 1.265 µM): 0.713 | relative viability ([8]; first compound 0.04 µM): 0.804 | relative viability ([8]; first compound 0.1265 µM): 0.944 | relative viability ([8]; first compound 0.4 µM): 0.757 | relative viability ([8]; first compound 1.265 µM): 0.724 | relative viability ([9]; first compound 0.04 µM): 0.849 | relative viability ([9]; first compound 0.1265 µM): 0.904 | relative viability ([9]; first compound 0.4 µM): 0.802 | relative viability ([9]; first compound 1.265 µM): 0.542 | relative viability ([10]; first compound 0.04 µM): 0.944 | relative viability ([10]; first compound 0.1265 µM): 0.811 | relative viability ([10]; first compound 0.4 µM): 0.864 | relative viability ([10]; first compound 1.265 µM): 0.348 | relative viability ([11]; first compound 0.04 µM): 0.856 | relative viability ([11]; first compound 0.1265 µM): 1.03 | relative viability ([11]; first compound 0.4 µM): 1.05 | relative viability ([11]; first compound 1.265 µM): 0.857 | relative viability ([12]; first compound 0.04 µM): 1.1 | relative viability ([12]; first compound 0.1265 µM): 1.08 | relative viability ([12]; first compound 0.4 µM): 1.18 | relative viability ([12]; first compound 1.265 µM): 0.836 | relative viability ([13]; first compound 0.04 µM): 0.95 | relative viability ([13]; first compound 0.1265 µM): 1.04 | relative viability ([13]; first compound 0.4 µM): 0.979 | relative viability ([13]; first compound 1.265 µM): 0.798 | relative viability ([14]; first compound 0.04 µM): 1.01 | relative viability ([14]; first compound 0.1265 µM): 1.16 | relative viability ([14]; first compound 0.4 µM): 1.06 | relative viability ([14]; first compound 1.265 µM): 0.811 | relative viability ([15]; first compound 0.04 µM): 0.463 | relative viability ([15]; first compound 0.1265 µM): 0.303 | relative viability ([15]; first compound 0.4 µM): 0.503 | relative viability ([15]; first compound 1.265 µM): 0.396 | relative viability ([16]; first compound 0.04 µM): 1.19 | relative viability ([16]; first compound 0.1265 µM): 1.37 | relative viability ([16]; first compound 0.4 µM): 1.34 | relative viability ([16]; first compound 1.265 µM): 1.03 | relative viability ([17]; first compound 0.04 µM): 0.818 | relative viability ([17]; first compound 0.1265 µM): 0.95 | relative viability ([17]; first compound 0.4 µM): 0.733 | relative viability ([17]; first compound 1.265 µM): 0.717 | relative viability ([18]; first compound 0.04 µM): 0.572 | relative viability ([18]; first compound 0.1265 µM): 0.642 | relative viability ([18]; first compound 0.4 µM): 0.684 | relative viability ([18]; first compound 1.265 µM): 0.463 | relative viability ([19]; first compound 0.04 µM): 0.892 | relative viability ([19]; first compound 0.1265 µM): 0.875 | relative viability ([19]; first compound 0.4 µM): 0.745 | relative viability ([19]; first compound 1.265 µM): 0.685 | relative viability ([20]; first compound 0.04 µM): 1.23 | relative viability ([20]; first compound 0.1265 µM): 1.26 | relative viability ([20]; first compound 0.4 µM): 1.22 | relative viability ([20]; first compound 1.265 µM): 1.13 | relative viability ([21]; first compound 0.04 µM): 0.778 | relative viability ([21]; first compound 0.1265 µM): 0.821 | relative viability ([21]; first compound 0.4 µM): 0.761 | relative viability ([21]; first compound 1.265 µM): 0.612

O=C(O)c1ccc(-c2c[nH]c3ncc(-c4ccccc4)cc23)cc1C1CCCC1 + NC(=O)Nc1cc(-c2cccc(F)c2)sc1C(=O)N[C@H]1CCCNC1 [AZD7762] (partner 0.2 µM)
relative viability ([1]; first compound 0.04 µM): 0.569 | relative viability ([1]; first compound 0.4 µM): 1.06 | relative viability ([1]; first compound 1.265 µM): 0.935 | relative viability ([2]; first compound 0.04 µM): 0.681 | relative viability ([2]; first compound 0.1265 µM): 0.64 | relative viability ([2]; first compound 0.4 µM): 0.77 | relative viability ([2]; first compound 1.265 µM): 0.764 | relative viability ([3]; first compound 0.04 µM): 0.845 | relative viability ([3]; first compound 0.1265 µM): 1.02 | relative viability ([3]; first compound 0.4 µM): 0.907 | relative viability ([3]; first compound 1.265 µM): 0.848 | relative viability ([4]; first compound 0.04 µM): 0.798 | relative viability ([4]; first compound 0.1265 µM): 1 | relative viability ([4]; first compound 0.4 µM): 0.875 | relative viability ([4]; first compound 1.265 µM): 0.728 | relative viability ([5]; first compound 0.04 µM): 0.853 | relative viability ([5]; first compound 0.1265 µM): 0.926 | relative viability ([5]; first compound 0.4 µM): 0.835 | relative viability ([5]; first compound 1.265 µM): 0.812 | relative viability ([6]; first compound 0.04 µM): 0.335 | relative viability ([6]; first compound 0.1265 µM): 0.414 | relative viability ([6]; first compound 0.4 µM): 0.407 | relative viability ([6]; first compound 1.265 µM): 0.39 | relative viability ([7]; first compound 0.04 µM): 0.437 | relative viability ([7]; first compound 0.1265 µM): 0.55 | relative viability ([7]; first compound 0.4 µM): 0.489 | relative viability ([7]; first compound 1.265 µM): 0.408 | relative viability ([8]; first compound 0.04 µM): 0.218 | relative viability ([8]; first compound 0.1265 µM): 0.297 | relative viability ([8]; first compound 0.4 µM): 0.237 | relative viability ([8]; first compound 1.265 µM): 0.328 | relative viability ([9]; first compound 0.1265 µM): 0.734 | relative viability ([9]; first compound 0.4 µM): 0.779 | relative viability ([9]; first compound 1.265 µM): 0.712 | relative viability ([10]; first compound 0.04 µM): 0.73 | relative viability ([10]; first compound 0.1265 µM): 0.919 | relative viability ([10]; first compound 0.4 µM): 0.767 | relative viability ([10]; first compound 1.265 µM): 0.583 | relative viability ([11]; first compound 0.04 µM): 1.29 | relative viability ([11]; first compound 0.1265 µM): 1.44 | relative viability ([11]; first compound 0.4 µM): 1.23 | relative viability ([11]; first compound 1.265 µM): 1.11 | relative viability ([13]; first compound 0.04 µM): 0.168 | relative viability ([13]; first compound 0.1265 µM): 0.191 | relative viability ([13]; first compound 0.4 µM): 0.242 | relative viability ([13]; first compound 1.265 µM): 0.203 | relative viability ([22]; first compound 0.04 µM): 1.03 | relative viability ([22]; first compound 0.1265 µM): 1.11 | relative viability ([22]; first compound 0.4 µM): 1.02 | relative viability ([22]; first compound 1.265 µM): 0.947 | relative viability ([14]; first compound 0.04 µM): 0.246 | relative viability ([14]; first compound 0.1265 µM): 0.32 | relative viability ([14]; first compound 0.4 µM): 0.21 | relative viability ([14]; first compound 1.265 µM): 0.246 | relative viability ([15]; first compound 0.04 µM): 0.278 | relative viability ([15]; first compound 0.1265 µM): 0.368 | relative viability ([15]; first compound 0.4 µM): 0.302 | relative viability ([15]; first compound 1.265 µM): 0.268 | relative viability ([16]; first compound 0.04 µM): 0.585 | relative viability ([16]; first compound 0.1265 µM): 0.631 | relative viability ([16]; first compound 0.4 µM): 0.625 | relative viability ([16]; first compound 1.265 µM): 0.65 | relative viability ([18]; first compound 0.04 µM): 0.79 | relative viability ([18]; first compound 0.1265 µM): 0.991 | relative viability ([18]; first compound 0.4 µM): 0.953 | relative viability ([18]; first compound 1.265 µM): 0.88 | relative viability ([19]; first compound 0.04 µM): 1.02 | relative viability ([19]; first compound 0.1265 µM): 1.11 | relative viability ([19]; first compound 0.4 µM): 1.08 | relative viability ([19]; first compound 1.265 µM): 1 | relative viability ([20]; first compound 0.04 µM): 0.599 | relative viability ([20]; first compound 0.1265 µM): 0.654 | relative viability ([20]; first compound 0.4 µM): 0.664 | relative viability ([20]; first compound 1.265 µM): 0.663 | relative viability ([21]; first compound 0.04 µM): 0.821 | relative viability ([21]; first compound 0.1265 µM): 0.935 | relative viability ([21]; first compound 0.4 µM): 0.797 | relative viability ([21]; first compound 1.265 µM): 0.878
